Assay results taken from PubChem BioAssay (NCI).
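Interpolation was linear, between the two tested concentrations surrounding the appropriate level; five concentrations were tested over 48 hours in 96-well plates. Abbreviation: GI50, concentration required for 50% inhibition of growth. TGI is the concentration that stops growth completely.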

Assays:
Assay in all cases: NCI anticancer screen, dose series, 48 h
DMS 114 small cell lung = system: DMS 114 small cell lung
COLO 205 colon = system: COLO 205 colon
HL-60(TB) leukemia = system: HL-60(TB) leukemia
TK-10 renal = system: TK-10 renal
NCI-H23 lung = system: NCI-H23 lung
OVCAR-8 ovarian = system: OVCAR-8 ovarian
SF-268 CNS = system: SF-268 CNS
XF 498 CNS = system: XF 498 CNS
T-47D breast = system: T-47D breast
DU-145 prostate = system: DU-145 prostate

Work on `CN(C)C(=S)/N=c1\ssc(=S)n1Cc1ccco1` yielded a TGI (DMS 114 small cell lung) of over 74 µM, a TGI (COLO 205 colon) of over 100 µM and a TGI (HL-60(TB) leukemia) of 8.2 µM. For the same molecule, the TGI (TK-10 renal) was over 100 µM, the TGI (NCI-H23 lung) was 45.6 µM and the TGI (OVCAR-8 ovarian) was over 100 µM. For the same molecule, the TGI (SF-268 CNS) was over 100 µM, the TGI (XF 498 CNS) was 60.1 µM and the TGI (T-47D breast) was over 100 µM.

Molecule `COc1cccc2c(SCC(=O)Nc3ccccc3-c3ccccc3NC(=O)CSc3c4ccccc4nc4c(OC)cccc34)c3ccccc3nc12` has a TGI (DMS 114 small cell lung) of over 100 µM, a TGI (COLO 205 colon) of over 100 µM and a TGI (HL-60(TB) leukemia) of over 100 µM. For the same molecule, the TGI (TK-10 renal) was over 100 µM, the TGI (NCI-H23 lung) was over 100 µM and the TGI (OVCAR-8 ovarian) was over 100 µM. For the same molecule, the TGI (SF-268 CNS) was over 100 µM and the TGI (XF 498 CNS) was over 100 µM.

Work on `CCCS(=O)c1nc(COC(=O)NC)c(COC(=O)NC)n1C` (stereo not given) yielded a TGI (DMS 114 small cell lung) of over 100 µM, a TGI (COLO 205 colon) of over 100 µM and a TGI (HL-60(TB) leukemia) of over 100 µM. For the same molecule, the TGI (NCI-H23 lung) was over 100 µM, the TGI (OVCAR-8 ovarian) was over 100 µM and the TGI (SF-268 CNS) was over 100 µM. For the same molecule, the TGI (XF 498 CNS) was over 100 µM.

With `O=C1C(Cl)=C(Cl)C(=O)N1c1cccc(C(F)(F)F)c1` the TGI (DMS 114 small cell lung) was over 100 µM, the TGI (COLO 205 colon) was over 100 µM and the TGI (HL-60(TB) leukemia) was over 100 µM. The TGI (TK-10 renal) was over 100 µM, the TGI (NCI-H23 lung) was over 100 µM and the TGI (OVCAR-8 ovarian) was over 100 µM. For the same molecule, the TGI (SF-268 CNS) was over 100 µM and the TGI (XF 498 CNS) was over 100 µM.

Work on `CN(C)N=Nc1cccc(C(N)=O)c1` yielded a TGI (DMS 114 small cell lung) of over 100 µM, a TGI (COLO 205 colon) of over 100 µM and a TGI (HL-60(TB) leukemia) of over 100 µM. It also gave a TGI (TK-10 renal) of over 100 µM, a TGI (NCI-H23 lung) of over 100 µM and a TGI (OVCAR-8 ovarian) of over 100 µM. It also gave a TGI (SF-268 CNS) of over 100 µM and a TGI (XF 498 CNS) of over 100 µM.

`Nn1c(-c2cccc(Cl)c2)nc2ccccc2c1=O` was tested, and the TGI (DMS 114 small cell lung) was over 100 µM, the TGI (COLO 205 colon) was over 100 µM and the TGI (HL-60(TB) leukemia) was over 100 µM. The TGI (TK-10 renal) was over 100 µM, the TGI (NCI-H23 lung) was over 100 µM and the TGI (OVCAR-8 ovarian) was over 100 µM. The TGI (SF-268 CNS) was over 100 µM and the TGI (XF 498 CNS) was over 100 µM.

With `O=C(O)/C(Cl)=C(Cl)/C=N/NC(=O)c1cc2ccccc2cc1O` the TGI (DMS 114 small cell lung) was 51.5 µM, the TGI (COLO 205 colon) was over 100 µM and the TGI (HL-60(TB) leukemia) was over 100 µM. For the same molecule, the TGI (TK-10 renal) was over 100 µM, the TGI (NCI-H23 lung) was 41.2 µM and the TGI (OVCAR-8 ovarian) was over 100 µM. For the same molecule, the TGI (SF-268 CNS) was over 100 µM and the TGI (XF 498 CNS) was over 100 µM.

For `COC(=O)c1ccc(C(=O)OC)c2nc3cc(Cl)ccc3nc12`, the TGI (DMS 114 small cell lung) was over 100 µM, the TGI (COLO 205 colon) was over 100 µM and the TGI (HL-60(TB) leukemia) was over 100 µM. The TGI (TK-10 renal) was over 100 µM, the TGI (NCI-H23 lung) was over 100 µM and the TGI (OVCAR-8 ovarian) was over 100 µM. It also gave a TGI (SF-268 CNS) of over 100 µM and a TGI (XF 498 CNS) of over 100 µM.

In the case of `Cc1ccc(C2[C@H]3C(=O)N(c4ccc(Cc5ccc(N6C(=O)[C@@H]7ON(c8ccccc8)C(c8ccc(C)cc8)[C@@H]7C6=O)cc5)cc4)C(=O)[C@H]3ON2c2ccccc2)cc1` (stereo not given in full), the TGI (DMS 114 small cell lung) is reported as over 100 µM, the TGI (COLO 205 colon) is reported as over 100 µM and the TGI (HL-60(TB) leukemia) is reported as over 100 µM. The TGI (NCI-H23 lung) was over 100 µM, the TGI (SF-268 CNS) was over 100 µM and the TGI (XF 498 CNS) was over 100 µM.

`CC(C)N1C(C)[C@@H](c2ccccc2)O[P@@]1(=O)CC1=CCCCC1` (stereo not given in full) gave a TGI (DMS 114 small cell lung) of over 100 µM, a TGI (COLO 205 colon) of over 100 µM and a TGI (HL-60(TB) leukemia) of 63.7 µM. It also gave a TGI (TK-10 renal) of over 100 µM, a TGI (NCI-H23 lung) of over 100 µM and a TGI (OVCAR-8 ovarian) of over 100 µM. The TGI (SF-268 CNS) was over 100 µM and the TGI (XF 498 CNS) was over 100 µM.

Work on `CN(CCCN1C(=O)c2cccc3cc([N+](=O)[O-])cc(c23)C1=O)CCN(C)CCCN1C(=O)c2cccc3cc([N+](=O)[O-])cc(c23)C1=O` yielded a TGI (DMS 114 small cell lung) of over 39.3 µM, a TGI (COLO 205 colon) of over 39.3 µM and a TGI (HL-60(TB) leukemia) of over 39.3 µM. It also gave a TGI (TK-10 renal) of over 39.3 µM, a TGI (NCI-H23 lung) of over 39.3 µM and a TGI (OVCAR-8 ovarian) of over 39.3 µM. The TGI (SF-268 CNS) was over 39.3 µM and the TGI (XF 498 CNS) was over 39.3 µM.

Work on `O=[N+]([O-])c1ccc(C2SCc3nc4ccccc4n32)cc1` (stereo not given) yielded a TGI (DMS 114 small cell lung) of over 100 µM, a TGI (COLO 205 colon) of over 100 µM and a TGI (HL-60(TB) leukemia) of over 100 µM. The TGI (TK-10 renal) was over 100 µM, the TGI (NCI-H23 lung) was over 100 µM and the TGI (OVCAR-8 ovarian) was over 100 µM. For the same molecule, the TGI (SF-268 CNS) was over 100 µM and the TGI (XF 498 CNS) was 80.6 µM.

`C[C@]12CC(C=O)C(=O)C(O)=C1CC[C@@H]1C2CC[C@@]2(C)C1CC[C@]2(C)O` (stereo not given in full) was tested, and the TGI (DMS 114 small cell lung) was 33.4 µM, the TGI (COLO 205 colon) was 38.3 µM and the TGI (HL-60(TB) leukemia) was 41.5 µM. It also gave a TGI (TK-10 renal) of 99.5 µM, a TGI (NCI-H23 lung) of 46.4 µM and a TGI (OVCAR-8 ovarian) of 89.9 µM. It also gave a TGI (SF-268 CNS) of 66.1 µM and a TGI (XF 498 CNS) of 33.4 µM.

`COC(=O)C(=O)C(C(C)=O)C(=O)NCc1ccccc1` (stereo not given) gave a TGI (DMS 114 small cell lung) of over 100 µM, a TGI (COLO 205 colon) of over 100 µM and a TGI (HL-60(TB) leukemia) of over 100 µM. For the same molecule, the TGI (TK-10 renal) was over 100 µM, the TGI (NCI-H23 lung) was over 100 µM and the TGI (OVCAR-8 ovarian) was over 100 µM. The TGI (SF-268 CNS) was over 100 µM and the TGI (XF 498 CNS) was over 100 µM.

`CCCCCN(CCCCC)C(=O)[C@H](CCC(=O)O)NC(=O)c1cc2ccccc2[nH]1` showed a TGI (DMS 114 small cell lung) of over 100 µM, a TGI (COLO 205 colon) of over 100 µM and a TGI (HL-60(TB) leukemia) of 61.8 µM. For the same molecule, the TGI (TK-10 renal) was over 100 µM, the TGI (NCI-H23 lung) was 85.8 µM and the TGI (OVCAR-8 ovarian) was over 100 µM. The TGI (SF-268 CNS) was over 100 µM and the TGI (XF 498 CNS) was over 100 µM.

With `COc1cc(C2c3cc4c(cc3[C@@H](Nc3ccc([N+](=O)[O-])cc3)C3COC(=O)[C@H]23)OCO4)cc(OC)c1O` (stereo not given in full) the GI50 (DMS 114 small cell lung) was 0.614 µM, the TGI (DMS 114 small cell lung) was 6.26 µM and the TGI (COLO 205 colon) was 10.1 µM. It also gave a GI50 (HL-60(TB) leukemia) of 0.0114 µM, a TGI (TK-10 renal) of 6.97 µM and a GI50 (NCI-H23 lung) of 0.341 µM. The TGI (NCI-H23 lung) was 4.12 µM, the TGI (DU-145 prostate) was 37.9 µM and the GI50 (OVCAR-8 ovarian) was 0.981 µM. For the same molecule, the TGI (OVCAR-8 ovarian) was 11 µM, the GI50 (SF-268 CNS) was 0.914 µM and the TGI (SF-268 CNS) was 39.5 µM. For the same molecule, the GI50 (XF 498 CNS) was 0.613 µM and the TGI (XF 498 CNS) was 15 µM.

`CCC[CH2][Sn]([CH2]CCC)([O]C(=O)c1cc(F)ccc1F)[O]C(=O)c1cc(F)ccc1F` showed a GI50 (DMS 114 small cell lung) of 0.372 µM, a TGI (DMS 114 small cell lung) of 1.41 µM and a GI50 (COLO 205 colon) of 1.12 µM. It also gave a TGI (COLO 205 colon) of 2.32 µM, a GI50 (HL-60(TB) leukemia) of 0.506 µM and a TGI (HL-60(TB) leukemia) of 3.09 µM. The GI50 (TK-10 renal) was 1.64 µM, the TGI (TK-10 renal) was 3.01 µM and the GI50 (NCI-H23 lung) was 0.731 µM. It also gave a TGI (NCI-H23 lung) of 2.02 µM, a GI50 (OVCAR-8 ovarian) of 1.34 µM and a TGI (OVCAR-8 ovarian) of 2.65 µM. It also gave a GI50 (SF-268 CNS) of 1.14 µM, a TGI (SF-268 CNS) of 2.37 µM and a GI50 (XF 498 CNS) of 1.8 µM. For the same molecule, the TGI (XF 498 CNS) was 3.21 µM.

In the case of `O=C(COC(=O)c1cccc2c(=O)c3ccccc3[nH]c12)Nc1ccc(Cl)cc1`, the TGI (DMS 114 small cell lung) is reported as over 100 µM, the TGI (COLO 205 colon) is reported as over 100 µM and the TGI (HL-60(TB) leukemia) is reported as over 100 µM. For the same molecule, the TGI (TK-10 renal) was 46.5 µM, the TGI (NCI-H23 lung) was 64.2 µM and the TGI (OVCAR-8 ovarian) was over 100 µM. The TGI (SF-268 CNS) was over 100 µM and the TGI (XF 498 CNS) was 97.3 µM.

`C[C@]12Cc3conc3C(O)=C1CC[C@@H]1C2CC[C@@]2(C)C1CC[C@]2(C)O` (stereo not given in full) showed a TGI (DMS 114 small cell lung) of 43.4 µM, a TGI (COLO 205 colon) of 52.1 µM and a TGI (HL-60(TB) leukemia) of 10.7 µM. The TGI (TK-10 renal) was 71.9 µM, the TGI (NCI-H23 lung) was 49.9 µM and the TGI (OVCAR-8 ovarian) was 61.3 µM. For the same molecule, the TGI (SF-268 CNS) was over 100 µM and the TGI (XF 498 CNS) was 47.2 µM.

Molecule `O=C1NC2(CCCCC2)C2CCCCC=C12` (stereo not given) has a TGI (DMS 114 small cell lung) of over 100 µM, a TGI (COLO 205 colon) of over 100 µM and a TGI (HL-60(TB) leukemia) of over 100 µM. It also gave a TGI (TK-10 renal) of over 100 µM, a TGI (NCI-H23 lung) of over 100 µM and a TGI (OVCAR-8 ovarian) of over 100 µM. It also gave a TGI (SF-268 CNS) of over 100 µM and a TGI (XF 498 CNS) of over 100 µM.

In the case of `CCOC(=O)/C(C#N)=C\Sc1ccccc1`, the TGI (DMS 114 small cell lung) is reported as 33.9 µM, the TGI (COLO 205 colon) is reported as 38.4 µM and the TGI (HL-60(TB) leukemia) is reported as 45.6 µM. The TGI (TK-10 renal) was over 100 µM, the TGI (NCI-H23 lung) was over 100 µM and the TGI (OVCAR-8 ovarian) was 27.3 µM. The TGI (SF-268 CNS) was 28.9 µM and the TGI (XF 498 CNS) was over 100 µM.
